Drawing on ChEMBL document CHEMBL4382200, “Discovery of Novel 7-Aryl 7-Deazapurine 3'-Deoxy-ribofuranosyl Nucleosides with Potent Activity against Trypanosoma cruzi” (J Med Chem, 2018), this text covers EC50 and Stability for two molecules.

SMILES strings stand for the structures. pEC50: −log10 of the molar value.

One may read the pEC50 as the EC50 on a negative log10 scale, so that one unit is a factor of ten. A higher pEC50 goes with a small EC50.

Data set [1] has as its system Trypanosoma cruzi. As to the kind of experiment: Antiparasitic activity against Trypanosoma cruzi Tulahuen intracellular amastigotes by beta-galactosidase reporter gene assay. It is filed as functional, organism-based. Background: A reporter such as luciferase makes a cellular process visible.
Data set [2] can be described thus: Drug metabolism in dog liver microsome S9 fraction assessed as CYP450-mediated metabolism by measuring compound remaining at 5 uM pretreated with NADPH and measured after 60 mins by UPLC-MS/MS analysis. The data set is classed as ADME, microsomes, Canis lupus familiaris. Conditions: microsomes, 1 h, 5 µM. A general note: Liver microsomes are vesicles of endoplasmic reticulum, rich in cytochrome P450 enzymes.

Data set [3] in a line: Drug metabolism in mouse liver microsome S9 fraction assessed as UGT-mediated metabolism by measuring compound remaining at 5 uM pretreated with UDPGA and measured after 60 mins by UPLC-MS/MS analysis. The data set is classed as ADME, microsomes. The following applies: microsomes, 1 h, 5 µM.
A short description of data set [4]: Drug metabolism in rat liver microsome S9 fraction assessed as UGT-mediated metabolism by measuring compound remaining at 5 uM pretreated with UDPGA and measured after 30 mins by UPLC-MS/MS analysis. It is filed as ADME, microsomes. Conditions: microsomes, 0.5 h, 5 µM.
The nature of data set [5]: Drug metabolism in rat liver microsome S9 fraction assessed as CYP450-mediated metabolism by measuring compound remaining at 5 uM pretreated with NADPH and measured after 60 mins by UPLC-MS/MS analysis. The data set is classed as ADME, microsomes. Conditions: microsomes, 1 h, 5 µM.
Data set [6] can be described thus: Drug metabolism in rat liver microsome S9 fraction assessed as UGT-mediated metabolism by measuring compound remaining at 5 uM pretreated with UDPGA and measured after 60 mins by UPLC-MS/MS analysis. It is filed as ADME, microsomes. Conditions: microsomes, 1 h, 5 µM.
For data set [7], the system named is Cytochrome P450. As to the kind of experiment: Drug metabolism in human liver microsome S9 fraction assessed as CYP450-mediated metabolism by measuring compound remaining at 5 uM pretreated with NADPH and measured after 60 mins by UPLC-MS/MS analysis. It is filed as ADME, microsomes. Conditions: microsomes, 1 h, 5 µM.
The nature of data set [8]: Drug metabolism in dog liver microsome S9 fraction assessed as UGT-mediated metabolism by measuring compound remaining at 5 uM pretreated with UDPGA and measured after 15 mins by UPLC-MS/MS analysis. The following applies: microsomes, 0.25 h, 5 µM. The data set is classed as ADME, microsomes, Canis lupus familiaris.
The nature of data set [9]: Drug metabolism in mouse liver microsome S9 fraction assessed as CYP450-mediated metabolism by measuring compound remaining at 5 uM pretreated with NADPH and measured after 15 mins by UPLC-MS/MS analysis. The data set is classed as ADME, microsomes. Conditions: microsomes, 0.25 h, 5 µM.
The nature of data set [10]: Drug metabolism in rat liver microsome S9 fraction assessed as CYP450-mediated metabolism by measuring compound remaining at 5 uM pretreated with NADPH and measured after 30 mins by UPLC-MS/MS analysis. The data set is classed as ADME, microsomes. The following applies: microsomes, 0.5 h, 5 µM.
Data set [11] can be described thus: Drug metabolism in dog liver microsome S9 fraction assessed as UGT-mediated metabolism by measuring compound remaining at 5 uM pretreated with UDPGA and measured after 30 mins by UPLC-MS/MS analysis. The data set is classed as ADME, microsomes, Canis lupus familiaris. The following applies: microsomes, 0.5 h, 5 µM.
Data set [12] is described as follows: Drug metabolism in mouse liver microsome S9 fraction assessed as CYP450-mediated metabolism by measuring compound remaining at 5 uM pretreated with NADPH and measured after 60 mins by UPLC-MS/MS analysis. It is filed as ADME, microsomes. Conditions: microsomes, 1 h, 5 µM.
Data set [13] in a line: Drug metabolism in mouse liver microsome S9 fraction assessed as UGT-mediated metabolism by measuring compound remaining at 5 uM pretreated with UDPGA and measured after 30 mins by UPLC-MS/MS analysis. It is filed as ADME, microsomes. Conditions: microsomes, 0.5 h, 5 µM.
Data set [14] is described as follows: Drug metabolism in dog liver microsome S9 fraction assessed as CYP450-mediated metabolism by measuring compound remaining at 5 uM pretreated with NADPH and measured after 30 mins by UPLC-MS/MS analysis. It is filed as ADME, microsomes, Canis lupus familiaris. Conditions: microsomes, 0.5 h, 5 µM.
A short description of data set [15]: Drug metabolism in mouse liver microsome S9 fraction assessed as UGT-mediated metabolism by measuring compound remaining at 5 uM pretreated with UDPGA and measured after 15 mins by UPLC-MS/MS analysis. It is filed as ADME, microsomes. Conditions: microsomes, 0.25 h, 5 µM.
In data set [16] the test system is Cytochrome P450. As to the kind of experiment: Drug metabolism in human liver microsome S9 fraction assessed as CYP450-mediated metabolism by measuring compound remaining at 5 uM pretreated with NADPH and measured after 30 mins by UPLC-MS/MS analysis. The data set is classed as ADME, microsomes. The following applies: microsomes, 0.5 h, 5 µM.
For data set [17], the system named is UDP-glucuronosyltransferases (UGTs). As to the kind of experiment: Drug metabolism in human liver microsome S9 fraction assessed as UGT-mediated metabolism by measuring compound remaining at 5 uM pretreated with UDPGA and measured after 30 mins by UPLC-MS/MS analysis. The data set is classed as ADME, microsomes. Conditions: microsomes, 0.5 h, 5 µM.
Data set [18] is described as follows: Drug metabolism in dog liver microsome S9 fraction assessed as UGT-mediated metabolism by measuring compound remaining at 5 uM pretreated with UDPGA and measured after 60 mins by UPLC-MS/MS analysis. It is filed as ADME, microsomes, Canis lupus familiaris. Conditions: microsomes, 1 h, 5 µM.
Data set [19] in a line: Drug metabolism in mouse liver microsome S9 fraction assessed as CYP450-mediated metabolism by measuring compound remaining at 5 uM pretreated with NADPH and measured after 30 mins by UPLC-MS/MS analysis. The data set is classed as ADME, microsomes. The following applies: microsomes, 0.5 h, 5 µM.
Data set [20] in a line: Drug metabolism in dog liver microsome S9 fraction assessed as CYP450-mediated metabolism by measuring compound remaining at 5 uM pretreated with NADPH and measured after 15 mins by UPLC-MS/MS analysis. It is filed as ADME, microsomes, Canis lupus familiaris. The following applies: microsomes, 0.25 h, 5 µM.
Data set [21] has as its system UDP-glucuronosyltransferases (UGTs). As to the kind of experiment: Drug metabolism in human liver microsome S9 fraction assessed as UGT-mediated metabolism by measuring compound remaining at 5 uM pretreated with UDPGA and measured after 15 mins by UPLC-MS/MS analysis. The following applies: microsomes, 0.25 h, 5 µM. It is filed as ADME, microsomes.
For data set [22], the system named is Cytochrome P450. As to the kind of experiment: Drug metabolism in human liver microsome S9 fraction assessed as CYP450-mediated metabolism by measuring compound remaining at 5 uM pretreated with NADPH and measured after 15 mins by UPLC-MS/MS analysis. The data set is classed as ADME, microsomes. Conditions: microsomes, 0.25 h, 5 µM.
Data set [23] can be described thus: Drug metabolism in rat liver microsome S9 fraction assessed as UGT-mediated metabolism by measuring compound remaining at 5 uM pretreated with UDPGA and measured after 15 mins by UPLC-MS/MS analysis. Conditions: microsomes, 0.25 h, 5 µM. It is filed as ADME, microsomes.
Data set [24] is described as follows: Drug metabolism in rat liver microsome S9 fraction assessed as CYP450-mediated metabolism by measuring compound remaining at 5 uM pretreated with NADPH and measured after 15 mins by UPLC-MS/MS analysis. It is filed as ADME, microsomes. The following applies: microsomes, 0.25 h, 5 µM.
The test system of data set [25] is UDP-glucuronosyltransferases (UGTs). As to the kind of experiment: Drug metabolism in human liver microsome S9 fraction assessed as UGT-mediated metabolism by measuring compound remaining at 5 uM pretreated with UDPGA and measured after 60 mins by UPLC-MS/MS analysis. The data set is classed as ADME, microsomes. Conditions: microsomes, 1 h, 5 µM.

`CN(C)c1ncnc2c1ncn2[C@@H]1O[C@H](CO)[C@@H](N)[C@H]1O` [PUROMYCIN AMINONUCLEOSIDE] had a negative logarithm of the EC50 (pEC50) in [1] of 6.00.
Consider `O=C(O)Cc1ccccc1Nc1c(Cl)cccc1Cl` [DICLOFENAC], for which the Stability entry in data set [2], in data set [3], in data set [4], in data set [5], in data set [6] and in data set [7] was “Unstable” each time. Further, the Stability entry in data set [8], in data set [9], in data set [10], in data set [11], in data set [12] and in [13] was “Unstable” throughout. Further, the Stability entry in [14], in data set [15], in data set [16], in [17], in [18] and in data set [19] was “Unstable” each time. The Stability entry in data set [20], in [21], in data set [22], in data set [23], in data set [24] and in data set [25] was “Unstable” each time.
